# Data taken from patent publication US20160159816A1, “SUBSTITUTED THIENOPYRIMIDINES AND PHARMACEUTICAL USE THEREOF” (BAYER PHARMA AKTIENGESELLSCHAFT, priority 2013, published 2016).
# Target: T1, human full-length MKNK1 (Homo sapiens, UniProt Q9BUB5, T385D)
# T1 construct: GST (N); purchased Carna Biosciences 02-145; host or cells: insect cells, baculovirus expression system
# Assay: MKNK1 kinase high ATP assay (TR-FRET)
# Type: biochemical
# Conditions: high ATP (2 mM), after preincubation with MKNK1; compounds of the present invention (Table 1a)
# In short: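 GST-tagged full-length human MKNK1 pre-incubated 15 min with compound, then reacted 30 min at 22 °C with 2 mM ATP and 0.06 μM biotinylated peptide substrate (pH 7.5). Phospho-peptide detected by TR-FRET (665/620 nm ratio); normalised to no-inhibitor and no-enzyme controls.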
# T1 sequence (Q9BUB5 1-424 isoform Q9BUB5-2 T344D): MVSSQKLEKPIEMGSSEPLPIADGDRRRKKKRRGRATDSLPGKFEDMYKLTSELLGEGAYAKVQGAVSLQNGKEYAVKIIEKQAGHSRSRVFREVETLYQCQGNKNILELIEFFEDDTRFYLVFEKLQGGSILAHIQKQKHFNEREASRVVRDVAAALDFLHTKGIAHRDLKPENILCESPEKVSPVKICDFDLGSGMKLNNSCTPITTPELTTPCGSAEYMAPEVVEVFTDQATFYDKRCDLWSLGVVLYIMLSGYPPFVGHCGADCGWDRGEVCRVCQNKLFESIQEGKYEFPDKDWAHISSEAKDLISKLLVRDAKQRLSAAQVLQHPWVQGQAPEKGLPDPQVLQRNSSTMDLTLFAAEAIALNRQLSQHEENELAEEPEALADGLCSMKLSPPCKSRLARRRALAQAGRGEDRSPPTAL
row,SMILES,IC50
1,"CC(C)NC(=O)NCC1CCc2c(sc3ncnc(Nc4ccc5[nH]ncc5c4)c23)C1 (racemic) [Example 8, (RS)-1-{[4-(1H-Indazol-5-ylamino)-5,6,7,8-tetrahydro[1]benzothieno[2,3-d]pyrimidin-7-yl]methyl}-3-propan-2-ylurea]",34.4 nM
2,"COc1cc2[nH]ncc2cc1Nc1ncnc2sc3c(c12)CCC1(C3)OCCO1 [Example 24, N-(6-Methoxy-1H-indazol-5-yl)-5,8-dihydro-6H-spiro[1-benzothieno[2,3-d]pyrimidine-7,2′-[1,3]dioxolan]-4-amine]",4.8 nM
3,"COc1cc2[nH]ncc2cc1Nc1ncnc2sc3c(c12)CCC(CNC(=O)C(C)(C)O)C3 (racemic) [Example 22, (RS)-2-Hydroxy-N-({4-[(6-methoxy-1H-indazol-5-yl)amino]-5,6,7,8-tetrahydro[1]benzothieno[2,3-d]pyrimidin-7-yl}methyl)-2-methylpropanamide]",4 nM
4,"CC(C)C(=O)NCC1CCc2c(sc3ncnc(Nc4ccc5[nH]ncc5c4)c23)C1 (racemic) [Example 10, (RS)—N-{[4-(1H-Indazol-5-ylamino)-5,6,7,8-tetrahydro[1]benzothieno[2,3-d]pyrimidin-7-yl]methyl}-2-methylpropanamide]",11 nM
5,"COc1cc2[nH]ncc2cc1Nc1ncnc2sc3c(c12)CCC(CNC(=O)NC(C)C)C3 (racemic) [Example 20, (RS)-1-({4-[(6-Methoxy-1H-indazol-5-yl)amino]-5,6,7,8-tetrahydro[1]benzothieno[2,3-d]pyrimidin-7-yl}methyl)-3-propan-2-ylurea]",3.1 nM

# Now from value to compound:
row,IC50,SMILES
1,220 nM,"CN(C)C1CCc2c(sc3ncnc(Nc4ccc5[nH]ncc5c4)c23)C1 (racemic) [Example 35, (RS)—N^4-(1H-Indazol-5-yl)-N^7,N^7-dimethyl-5,6,7,8-tetrahydro[1]benzothieno[2,3-d]pyrimidine-4,7-diamine]"
2,11.7 nM,"COc1cc2[nH]ncc2cc1Nc1ncnc2sc3c(c12)CC[C@@](C)(C(=O)N1CCC1)C3 [Example 61, (7R) Azetidin-1-yl{(7S)-4-[(6-methoxy-1H-indazol-5-yl)amino]-7-methyl-5,6,7,8-tetrahydro[1]benzothieno[2,3-d]pyrimidin-7-yl}methanone]"
3,1.7 nM,"CC[C@]1(C(=O)N(C)C)CCc2c(sc3ncnc(Nc4cc5cn[nH]c5cc4OC)c23)C1 [Example 51, (7S) 7-Ethyl-4-[(6-methoxy-1H-indazol-5-yl)amino]-N,N-dimethyl-5,6,7,8-tetrahydro[1]benzothieno[2,3-d]pyrimidine-7-carboxamide]"
4,124 nM,"Cc1cc2[nH]ncc2cc1Nc1ncnc2sc3c(c12)CCC(C)C3 (racemic) [Example 25, (RS)-7-Methyl-N-(6-methyl-1H-indazol-5-yl)-5,6,7,8-tetrahydro[1]benzothieno[2,3-d]pyrimidin-4-amine]"
5,165 nM,"COCC1(OC)CCc2c(sc3ncnc(Nc4cc5cn[nH]c5cc4Cl)c23)C1 (single isomer, unassigned) [Example 47, (7S) or (7R) N-(6-Chloro-1H-indazol-5-yl)-7-methoxy-7-(methoxymethyl)-5,6,7,8-tetrahydro[1]benzothieno[2,3-d]pyrimidin-4-amine]"
6,13.3 nM,"COc1cc2[nH]ncc2cc1Nc1ncnc2sc3c(c12)CC[C@@](C)(C(=O)N(C)C)C3 [Example 49, (7R) 4-[(6-Methoxy-1H-indazol-5-yl)amino]-N,N,7-trimethyl-5,6,7,8-tetrahydro[1]benzothieno[2,3-d]pyrimidine-7-carboxamide]"
7,14.1 nM,"COc1cc2[nH]ncc2cc1Nc1ncnc2sc3c(c12)CCC(N(C)C)C3 (racemic) [Example 36, (RS)—N^4-(6-Methoxy-1H-indazol-5-yl)-N^7,N^7-dimethyl-5,6,7,8-tetrahydro[1]benzothieno[2,3-d]pyrimidine-4,7-diamine]"
8,487 nM,"COCC1(OC)CCc2c(sc3ncnc(Nc4cc5cn[nH]c5cc4C)c23)C1 (single isomer, unassigned) [Example 40, (7R) or (7S) 7-Methoxy-7-(methoxymethyl)-N-(6-methyl-1H-indazol-5-yl)-5,6,7,8-tetrahydro[1]benzothieno[2,3-d]pyrimidin-4-amine]"
